pIC50: −log10 of the molar value.
Assay: Inhibition of Saccharomyces cerevisiae alpha-glucosidase using p-nitrophenyl-alpha-D-glucopyranoside as substrate measured after 30 mins

Row | pIC50 | Structure (SMILES)
1 | < 3.60 | C/C=C/c1cc(=O)c2ccccc2n1C
2 | 3.86 | CCCC[C@@H](CC)COC(=O)c1cn[nH]n1
